{
  "source": "patent US20100204097A1",
  "about": "“THERAPEUTIC METHODS USING A THYMUS PEPTIDE” (IMMUNE SYSTEM KEY LTD., priority 2006, published 2010)",
  "key": {"[1]": {"system": "U937 cells", "assay": "Western blot for phosphorylated JNK, phosphorylated MAPK p38 and IκB in U937 cells", "assay_type": "cell-based, human", "procedure": "The U937 cells were incubated for 30 min. with (+) or without (−) T101;\nIn order to determine the effect of T101 on various apoptotic signaling pathways, JNK and MAP kinase phosphorylation were measured.\n(§1) In FIG. 10, it can be seen that T101 causes an increase in both JNK and MAPK phosphorylation 30 min after T101 application, while no change in the IκB protein level was detected. No change of IκB levels was detected at shorter time points as well. Therefore, it is assumed that the JNK pathway and MAP kinase pathway are activated by T101, while NF-κB remains unactivated. However, not only the caspase 8 pathway is activated upon T1/ST2 activation by T101, but also the caspase 9 dependent cascade is stimulated."}, "[2]": {"system": "murine spleenocytes", "assay": "Activated caspase 6 in spleenocytes of mice injected ip with LPS and/or T101", "assay_type": "in vivo", "details": "Balb/c mice"}, "[3]": {"system": "mouse spleenocytes", "assay": "Expression of VEGFA, VEGFR1 and IL-10 in mouse spleenocytes", "assay_type": "cell-based", "details": "increasing concentrations of T101", "source_text": "HPRT was included as a negative control.\nMouse spleenocytes were challenged without or with increasing concentrations of T101. VEGFA, VEGFR1 and IL-10 expression were compared. VEGFA is a major proangiogenic cytokine, and VEGFR1 is a receptor for VEGFA. HPRT was included as a negative control."}, "[4]": {"system": "murine mammary gland carcinoma cells", "assay": "Induction of apoptosis in murine mammary gland carcinoma cells", "assay_type": "cell-based", "details": "not shown", "source_text": "(§2) It may be seen in FIG. 9 that in untreated cells (time 0), a significant level of FLIP but very little caspase 8 are observed. […] It is seen that the changes in FLIP and caspase 8 are time-sensitive, with the greatest changes seen at the short time points (10′), after which their levels gradually return to baseline. Similar results were obtained with other cell lines as well."}, "[5]": {"system": "U937 cells", "assay": "Western blot for activated caspase 3 in FCS-activated U937 cells", "assay_type": "cell-based, human", "details": "U937 cells activated with 10% FCS, 18 hr, 10 pg/ml to 100 ng/ml T101", "procedure": "10^6 U937 cells, a human leukemic monoblast cell line, were incubated for 18 hr at 37° C. in RPMI buffer+10% fetal calf serum (FCS) with different concentrations of T101. The FCS causes activation of the U937 cells. The cells were then lysed in RIPA buffer in the presence of protease inhibitors, and run on SDS-PAGE. A Western blot of the gel was performed with anti-caspase 3 antibody.\nThe lanes of the gel were loaded with lysed cells which had been incubated with the following concentrations of T101: A,B—0 pg/ml (control); C—10 pg/ml; D—100 pg/ml; E—1 ng/ml; F—10 ng/ml; G—100 ng/ml.\nThus, T101 can be expected to cause apoptosis in activated monocytes, thereby reducing the possibility of development of a disease associated with activated monocytes, such as atherosclerosis."}, "[6]": {"system": "U937 cells", "assay": "Time course of FLIP and caspase 8 in T1/ST2 immuno-precipitated from U937 cells", "assay_type": "cell-based, human", "procedure": "The samples were obtained from T1/ST2 immuno-precipitated from U937 cells at different time points after incubation with T101. The antibodies used to detect caspase 8 were against the active cleaved species;\nIn this example, the time course of the effect of T101 on T1/ST2 receptor-related apoptosis was investigated by following the degradation of FLIP and activation of caspase 8. U937 cells were incubated with T101, and at different time points T1/ST2 was immuno-precipitated from the cells and analyzed by Western blot for the presence of caspase 8 and FLIP."}, "[7]": {"system": "human breast cancer cells", "assay": "Induction of apoptosis in human breast cancer cells", "assay_type": "cell-based", "details": "not shown", "source_text": "as §2"}, "[8]": {"system": "human lung carcinoma cells", "assay": "Induction of apoptosis in human lung carcinoma cells", "assay_type": "cell-based", "details": "not shown", "source_text": "as §2"}, "[9]": {"system": "murine spleenocytes", "assay": "Activated caspase 3 in spleenocytes of mice injected ip with LPS and/or T101", "assay_type": "in vivo", "details": "Balb/c mice", "procedure": "Four groups of 3 mice each (male Balb/c, 6 wks old, approx. 20 gr.) were injected ip with the following: A—saline (control); B—50 μg LPS (induces activation of monocytes); C —50 μg LPS+1 μg T101; D—1 μg T101. After 24 hours the mice were sacrificed and the spleens were removed. The spleens of the mice of each group were combined and lysed in RIPA buffer in the presence of protease inhibitors, and 30×10^6 lysed spleenocytes from each group were run on SDS-PAGE. A Western blot of the gel was performed with antibody against activated caspase 3."}, "[10]": {"system": "U937 cells", "assay": "Western blot for Bcl-2 and full length caspase 9 in U937 cells", "assay_type": "cell-based, human", "procedure": "as §1"}, "[11]": {"system": "human glioblastoma cells", "assay": "Induction of apoptosis in human glioblastoma cells", "assay_type": "cell-based", "details": "not shown", "source_text": "as §2"}, "[12]": {"system": "mouse N2A neublastoma cells", "assay": "Induction of apoptosis in mouse N2A neublastoma cells", "assay_type": "cell-based", "details": "not shown", "source_text": "as §2"}, "[13]": {"system": "U937 cells", "assay": "Western blot for the 85 kDa cleavage product of PARP in U937 cells", "assay_type": "cell-based, human", "procedure": "U937 cells were treated as in FIG. 1 and loaded on SDS-PAGE, except that the gel was treated with antibody against the 85 kDa cleavage product of PARP, which is produced by the cleavage of PARP by caspase 3, and is active in apoptosis.\nThe lanes of the gel were loaded with lysed cells which had been incubated with the following concentrations of T101: A —100 ng/ml; B —10 ng/ml; C —1 ng/ml; D —100 pg/ml; E —10 pg/ml; F —0 pg/ml (control). The bands show the location of the 85 kDa cleavage product of PARP.\nU937 cells were treated as in FIG. 2 except that some of the cells were not treated with FCS, i.e. not activated. The lysed cells were loaded on SDS-PAGE, which was treated with antibody against the 85 kDa cleavage product of PARP.\nThe lanes of the gel were loaded with lysed cells, as follows: A—activated cells+0 ng/ml T101 (control) [the result with nonactivated cells was similar]; B—nonactivated cells+100 ng/ml T101; C—activated cells+100 ng/ml T101."}, "[14]": {"assay": "Blood cholesterol level in mice after 3 weeks of treatment", "assay_type": "in vivo", "details": "female Balb/C mice, 50 μg/Kg twice a day for 3 weeks, pooled blood, versus saline", "procedure": "(§3) Two groups of 7 weeks old female Balb/C mice were injected twice a day for 3 weeks with either T101 (50 μg/Kg) (8 mice), or with saline (control) (7 mice). After 3 weeks, blood was collected from the mice and pooled, and the cholesterol level (mg/DL) was measured."}, "[15]": {"system": "T1/ST2 receptor", "assay": "Streptavidin bead pull-down of FC-T1/ST2 by biotin-labeled T101, Western blot", "assay_type": "binding", "details": "T101-bio pre-incubated with FC-T1/ST2 45 min at 4° C., Streptavidin beads", "procedure": "An antibody to the T1/ST2 receptor (FC-T1/ST2), and T101 labeled with biotin (T101-bio) were prepared. Streptavidin beads were incubated for 1 hr. at 4° C. with each of the following: A —T101-bio alone; B—Fc-T1/ST2 alone; C—FC-T1/ST2 pre-incubated with T101-bio for 45 min. at 4° C. After incubation, the beads were spun down and washed 3 times with PBS+0.1% Tween 20. The beads were then loaded on SDS-PAGE and a Western blot was performed using antibody against T1/ST2."}, "[16]": {"assay": "Blood liver enzyme levels (AST, ALP, ALT) in mice after 3 weeks of treatment", "assay_type": "in vivo", "details": "female Balb/C mice, 50 μg/Kg twice a day for 3 weeks, versus saline", "procedure": "as §3\nLiver enzymes levels (μg/L) were measured in the blood of the mice of Example 7. The enzymes measured were aspartate aminotransferase (AST), alkaline phosphatase (ALP) and alanine aminotransferase (ALT)."}, "[17]": {"details": "1 μg T101 without LPS, 24 hours"}, "[18]": {"details": "T1/ST2 immuno-precipitate from U937 cells, greatest change at 10′"}},
  "data": [
    {"substance": "T101: human thymus peptide, 51 amino acids: LHLWLSGEPVQSSGTKDMRSKSDSKRVSDKQLISKAVWWTFFLPSTLWERK (listed as Homo sapiens)", "values": [
      {"measurement": "JNK phosphorylation", "setting": "[1]; 30 min after T101 application", "result": "increase"},
      {"measurement": "MAPK phosphorylation", "setting": "[1]; 30 min after T101 application", "result": "increase"},
      {"measurement": "IκB protein level", "setting": "[1]; 30 min and shorter time points", "result": "no change"},
      {"measurement": "caspase 6 in nonactivated spleenocytes", "setting": "[2]; [17]", "result": "inhibiting caspase 6"},
      {"measurement": "caspase 6 in activated spleenocytes", "setting": "[2]; 50 μg LPS+1 μg T101, 24 hours", "result": "induces caspase 6"},
      {"measurement": "expression of IL-10", "setting": "[3]", "result": "enhanced"},
      {"measurement": "expression of VEGFA", "setting": "[3]", "result": "inhibits the expression"},
      {"measurement": "expression of VEGFR1", "setting": "[3]", "result": "inhibits the expression"},
      {"measurement": "induction of apoptosis", "setting": "[4]", "result": "able to induce apoptosis"},
      {"measurement": "activated caspase 3 (Western blot)", "setting": "[5]", "result": "increased activated caspase 3"},
      {"measurement": "active caspase 8", "setting": "[6]; [18]", "result": "concomitant increase of active caspase 8"},
      {"measurement": "level of FLIP", "setting": "[6]; [18]", "result": "level of FLIP decreases"},
      {"measurement": "inactive caspase 8", "setting": "[6]; U937 cells, not shown", "result": "decrease of the inactive caspase 8"},
      {"measurement": "induction of apoptosis", "setting": "[7]", "result": "able to induce apoptosis"},
      {"measurement": "induction of apoptosis", "setting": "[8]", "result": "able to induce apoptosis"},
      {"measurement": "activated caspase 3 in spleenocytes", "setting": "[9]; [17]", "result": "inhibition of activated caspase 3"},
      {"measurement": "activated caspase 3 in spleenocytes", "setting": "[9]; 50 μg LPS+1 μg T101, 24 hours, versus control", "result": "increased amount of activated caspase 3"},
      {"measurement": "Bcl-2 protein", "setting": "[10]", "result": "very pronounced degradation"},
      {"measurement": "full-length caspase 9 protein", "setting": "[10]", "result": "cleavage of the full-length caspase 9 protein"},
      {"measurement": "induction of apoptosis", "setting": "[11]", "result": "able to induce apoptosis"},
      {"measurement": "induction of apoptosis", "setting": "[12]", "result": "able to induce apoptosis"},
      {"measurement": "cleavage of PARP, activated versus nonactivated monocytes", "setting": "[13]; U937 cells with or without FCS, 100 ng/ml T101", "result": "induced the cleavage of PARP only in the activated monocytes"},
      {"measurement": "amount of the 85 kDa cleavage product of PARP", "setting": "[13]; activated U937 cells, 10 pg/ml T101", "result": "significantly increased"},
      {"measurement": "cholesterol level in the blood", "setting": "[14]", "result": "significant decrease"},
      {"measurement": "binding to the T1/ST2 receptor", "setting": "[15]", "result": "binds to the T1/ST2 receptor"},
      {"measurement": "liver enzyme levels in the blood (AST, ALP, ALT)", "setting": "[16]", "result": "significant decrease"}
    ]}
  ]
}
